From US20020025337A1, “LIPID VEHICLE DRUG DELIVERY COMPOSITION CONTAINING VITAMIN E” (priority 1995, published 2002)
In brackets after ≈: the same amount, converted by molar mass.

Assay: physchem
Conditions: for solubility / solubility at 18 h: 25 °C
Description: To measure the SVE of a drug, saturated solutions of the drug are prepared in methanol and chloroform. An appropriate means of preparing a saturated solution is to suspend approximately 60 mg of drug in 3 ml of the solvent and stir for 24 hours at room temperature. If all of the drug dissolves during this time, further 10 mg aliquots should be added until a suspension is again formed. After 24 hours, the suspension are centrifuged or filtered to separate drug in solution from undissolved particulate drug. The drug solutions are assayed for drug content by an appropriate means, eg. high performance liquid chromatography, and the saturated solubility calculated. The SVE is calculated by dividing the solubility in chloroform by the solubility in methanol and expressed as weight in volume (w/v).
Into each of two 10 ml bottles was weighed 60 mg of itraconazole. To one bottle was added 3 ml of chloroform. […] Further itraconazole was added in 100 mg aliquots until a suspension was formed. […] To the other bottle was added 3 ml of methanol. A magnetic stirrer bar was added to each bottle and the contents were left to stir on a magnetic stirrer. After being left overnight to stir (18 hours), the contents of each bottle were filtered through a 0.1 μm PTFE filter (Whatman). […] To assay the methanol filtrate for itraconazole content, 1 ml was diluted to 5 ml with the same diluent used for the chloroform analysis. Both samples were assayed for itraconazole content using reverse-phase high performance liquid chromatography.

[1] = oil or lipid, Solubility (mg/ml) Vitamin E
[2] = organic solvent or mixture, thermodynamic from solid, Solubility (mg/ml) Chloroform
[3] = organic solvent or mixture, thermodynamic from solid, Solubility (mg/ml) Methanol

Row | Compound | Solubility (mg/ml) Water | solubility [1] | solubility [2] | solubility [3] | further results
1 | C[C@@H]1[C@H](O)[C@@H](C)/C=C/C=C/C=C/C=C/C=C/C=C/C=C/[C@H](O[C@@H]2O[C@H](C)[C@@H](O)[C@H](N)[C@@H]2O)C[C@@H]2O[C@](O)(C[C@@H](O)C[C@@H](O)[C@H](O)CC[C@@H](O)C[C@@H](O)CC(=O)O[C@H]1C)C[C@H](O)[C@H]2C(=O)O [Amphotericin] | insol. |  |  |  | Solubility (mg/ml) Chloroform: insol.; Solubility (mg/ml) Vitamin E: insol.
2 | CC(C)[C@@H](C)/C=C/[C@@H](C)[C@H]1CC[C@H]2C3=CC=C4C[C@@H](O)CC[C@]4(C)[C@H]3CC[C@]12C [Ergosterol] | insol. | 50 mg/mL (≈ 126 mM) | 32 mg/mL (≈ 80.7 mM) | 1.5 mg/mL (≈ 3.78 mM) | 
3 | C[C@]12C=CC(=O)C=C1CC[C@@H]1[C@@H]2[C@@H](O)C[C@@]2(C)[C@H]1CC[C@]2(O)C(=O)CO [Prednisolone] |  |  |  |  | solubility (organic solvent or mixture, thermodynamic from solid, Solubility (mg/ml) Methanol, methanol, room temperature (25° C.)): 33 mg/mL (≈ 91.6 mM)

More lines, main results first:

Row | Solubility (mg/ml) Water | solubility [1] | solubility [2] | solubility [3] | Compound | further results
4 | insol. | 150 mg/mL (≈ 388 mM) | 200 mg/mL (≈ 517 mM) | 5 mg/mL (≈ 12.9 mM) | CC(C)CCC[C@@H](C)[C@H]1CC[C@H]2[C@@H]3CC=C4C[C@@H](O)CC[C@]4(C)[C@H]3CC[C@]12C [Cholesterol] | 
5 | insol | 60 mg/mL (≈ 85 mM) | 500 mg/mL (≈ 709 mM) |  | CCC(C)n1ncn(-c2ccc(N3CCN(c4ccc(OCC5COC(Cn6cncn6)(c6ccc(Cl)cc6Cl)O5)cc4)CC3)cc2)c1=O (centres unmarked) [Itraconazole] | solubility (oil or lipid, solubility of the drug in vegetable oils): ≤ 0.4 mg/mL; solubility at 18 h (organic solvent or mixture, thermodynamic from solid, solubility of itraconazole in chloroform): 350 mg/mL (≈ 496 mM); solubility at 18 h (organic solvent or mixture, thermodynamic from solid, solubility of itraconazole in methanol): 0.7 mg/mL (≈ 0.992 mM); SVE value (18 h): 500
6 | insol |  |  |  | CC(=O)O[C@H]1C(=O)[C@@]2(C)[C@H]([C@H](OC(=O)c3ccccc3)[C@]3(O)C[C@H](OC(=O)[C@H](O)[C@@H](NC(=O)c4ccccc4)c4ccccc4)C(C)=C1C3(C)C)[C@]1(OC(C)=O)CO[C@@H]1C[C@@H]2O [Taxol] | 
